According to patent US20220009920A1 (GB005, Inc., priority 2020, published 2022):

Legend:
Experiment in all cases: Large panel kinase profiling
Assay type in all cases: biochemical
Settings in all cases: 1 μM test article, 1 mM ATP
CSNK1D/CK1D = target: T1, CSNK1D/CK1D (Homo sapiens, UniProt P48730)
T1 construct: AssayQuant Technologies, Inc. (service laboratory)
Outline: (§1)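 With ATP fixed at 1 mM, each kinase was exposed to 1 μM compound in a PhosphoSens CSox-Sensor reaction. Sealed plates were incubated at 30° C. and read in kinetic mode.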

DAPK3 = target: T2, DAPK3 (Homo sapiens, UniProt O43293)
T2 construct: AssayQuant Technologies, Inc. (service laboratory)
Outline: as §1

EPHA3 = target: T3, EPHA3 (Homo sapiens, UniProt P29320)
T3 sequence (P29320 21-983): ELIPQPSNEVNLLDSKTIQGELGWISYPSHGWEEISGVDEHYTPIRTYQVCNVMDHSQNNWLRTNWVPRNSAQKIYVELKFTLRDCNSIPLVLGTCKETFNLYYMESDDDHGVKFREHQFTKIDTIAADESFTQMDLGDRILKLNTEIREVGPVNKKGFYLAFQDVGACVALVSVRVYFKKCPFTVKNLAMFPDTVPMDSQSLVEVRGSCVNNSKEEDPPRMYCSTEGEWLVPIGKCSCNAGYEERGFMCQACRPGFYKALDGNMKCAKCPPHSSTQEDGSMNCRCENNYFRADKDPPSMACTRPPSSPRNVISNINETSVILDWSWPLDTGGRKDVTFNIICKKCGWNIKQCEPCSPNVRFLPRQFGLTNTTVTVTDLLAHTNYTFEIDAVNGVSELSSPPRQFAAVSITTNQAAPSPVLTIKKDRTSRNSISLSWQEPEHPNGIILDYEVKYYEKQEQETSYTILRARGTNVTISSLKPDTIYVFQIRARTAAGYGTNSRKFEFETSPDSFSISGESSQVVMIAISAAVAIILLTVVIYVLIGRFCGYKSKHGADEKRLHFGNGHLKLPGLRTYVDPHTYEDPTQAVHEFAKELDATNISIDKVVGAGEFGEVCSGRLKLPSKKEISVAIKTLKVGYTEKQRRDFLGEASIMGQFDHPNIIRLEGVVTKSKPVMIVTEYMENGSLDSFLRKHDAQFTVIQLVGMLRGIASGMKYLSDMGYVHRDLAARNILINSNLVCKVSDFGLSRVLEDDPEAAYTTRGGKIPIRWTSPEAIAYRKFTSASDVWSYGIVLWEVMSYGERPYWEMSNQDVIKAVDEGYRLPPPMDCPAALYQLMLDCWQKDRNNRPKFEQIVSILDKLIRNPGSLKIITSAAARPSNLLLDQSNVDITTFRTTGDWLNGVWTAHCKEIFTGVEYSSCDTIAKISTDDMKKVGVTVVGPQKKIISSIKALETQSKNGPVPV
Outline: as §1

EPHA8 = target: T4, EPHA8 (Homo sapiens, UniProt P29322)
T4 sequence (P29322 28-1005): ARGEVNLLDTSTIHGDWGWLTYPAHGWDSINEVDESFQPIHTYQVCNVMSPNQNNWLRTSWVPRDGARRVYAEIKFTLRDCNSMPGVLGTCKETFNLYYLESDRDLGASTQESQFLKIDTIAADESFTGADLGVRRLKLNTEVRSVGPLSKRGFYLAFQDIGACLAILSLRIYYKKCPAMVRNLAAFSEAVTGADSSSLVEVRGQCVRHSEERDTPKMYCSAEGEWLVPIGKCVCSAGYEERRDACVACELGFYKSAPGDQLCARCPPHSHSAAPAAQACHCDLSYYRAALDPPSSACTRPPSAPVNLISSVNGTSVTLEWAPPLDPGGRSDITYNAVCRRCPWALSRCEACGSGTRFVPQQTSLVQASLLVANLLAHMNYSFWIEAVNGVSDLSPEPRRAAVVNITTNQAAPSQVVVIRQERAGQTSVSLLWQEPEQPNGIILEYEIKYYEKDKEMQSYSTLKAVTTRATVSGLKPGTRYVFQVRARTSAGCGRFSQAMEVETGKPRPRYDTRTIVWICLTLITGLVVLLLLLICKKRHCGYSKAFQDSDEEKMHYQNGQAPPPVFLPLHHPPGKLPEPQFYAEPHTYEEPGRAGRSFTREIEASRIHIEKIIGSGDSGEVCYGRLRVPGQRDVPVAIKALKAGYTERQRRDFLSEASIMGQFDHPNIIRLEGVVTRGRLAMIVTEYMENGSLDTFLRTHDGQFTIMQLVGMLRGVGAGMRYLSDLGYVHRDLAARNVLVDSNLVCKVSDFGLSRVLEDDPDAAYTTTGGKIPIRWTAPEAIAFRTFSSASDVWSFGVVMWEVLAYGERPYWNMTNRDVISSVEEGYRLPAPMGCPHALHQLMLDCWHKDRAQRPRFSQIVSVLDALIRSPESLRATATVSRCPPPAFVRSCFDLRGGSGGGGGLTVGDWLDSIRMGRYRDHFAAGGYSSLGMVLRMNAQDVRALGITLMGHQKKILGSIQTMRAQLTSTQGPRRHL
Outline: as §1

ERBB4/HER4 = ERBB4/HER4 (Homo sapiens, UniProt Q15303)
Outline: as §1

NEK2 = target: T5, NEK2 (Homo sapiens, UniProt P51955)
T5 construct: AssayQuant Technologies, Inc. (assay service)
T5 sequence (P51955 1-445): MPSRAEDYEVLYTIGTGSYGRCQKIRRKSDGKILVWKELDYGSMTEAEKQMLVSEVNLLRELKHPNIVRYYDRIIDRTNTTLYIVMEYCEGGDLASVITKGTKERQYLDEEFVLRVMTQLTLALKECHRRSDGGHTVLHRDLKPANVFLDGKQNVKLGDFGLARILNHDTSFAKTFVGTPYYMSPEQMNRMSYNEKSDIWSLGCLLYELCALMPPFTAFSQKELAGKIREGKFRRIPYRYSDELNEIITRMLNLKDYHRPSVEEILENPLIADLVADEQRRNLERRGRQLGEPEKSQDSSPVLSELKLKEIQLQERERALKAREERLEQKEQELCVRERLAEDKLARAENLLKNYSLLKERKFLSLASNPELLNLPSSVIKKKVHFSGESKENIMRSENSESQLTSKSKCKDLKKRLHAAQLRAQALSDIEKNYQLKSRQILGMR
Outline: as §1

Chain of ERBB4/HER4 (Q15303 26-1308): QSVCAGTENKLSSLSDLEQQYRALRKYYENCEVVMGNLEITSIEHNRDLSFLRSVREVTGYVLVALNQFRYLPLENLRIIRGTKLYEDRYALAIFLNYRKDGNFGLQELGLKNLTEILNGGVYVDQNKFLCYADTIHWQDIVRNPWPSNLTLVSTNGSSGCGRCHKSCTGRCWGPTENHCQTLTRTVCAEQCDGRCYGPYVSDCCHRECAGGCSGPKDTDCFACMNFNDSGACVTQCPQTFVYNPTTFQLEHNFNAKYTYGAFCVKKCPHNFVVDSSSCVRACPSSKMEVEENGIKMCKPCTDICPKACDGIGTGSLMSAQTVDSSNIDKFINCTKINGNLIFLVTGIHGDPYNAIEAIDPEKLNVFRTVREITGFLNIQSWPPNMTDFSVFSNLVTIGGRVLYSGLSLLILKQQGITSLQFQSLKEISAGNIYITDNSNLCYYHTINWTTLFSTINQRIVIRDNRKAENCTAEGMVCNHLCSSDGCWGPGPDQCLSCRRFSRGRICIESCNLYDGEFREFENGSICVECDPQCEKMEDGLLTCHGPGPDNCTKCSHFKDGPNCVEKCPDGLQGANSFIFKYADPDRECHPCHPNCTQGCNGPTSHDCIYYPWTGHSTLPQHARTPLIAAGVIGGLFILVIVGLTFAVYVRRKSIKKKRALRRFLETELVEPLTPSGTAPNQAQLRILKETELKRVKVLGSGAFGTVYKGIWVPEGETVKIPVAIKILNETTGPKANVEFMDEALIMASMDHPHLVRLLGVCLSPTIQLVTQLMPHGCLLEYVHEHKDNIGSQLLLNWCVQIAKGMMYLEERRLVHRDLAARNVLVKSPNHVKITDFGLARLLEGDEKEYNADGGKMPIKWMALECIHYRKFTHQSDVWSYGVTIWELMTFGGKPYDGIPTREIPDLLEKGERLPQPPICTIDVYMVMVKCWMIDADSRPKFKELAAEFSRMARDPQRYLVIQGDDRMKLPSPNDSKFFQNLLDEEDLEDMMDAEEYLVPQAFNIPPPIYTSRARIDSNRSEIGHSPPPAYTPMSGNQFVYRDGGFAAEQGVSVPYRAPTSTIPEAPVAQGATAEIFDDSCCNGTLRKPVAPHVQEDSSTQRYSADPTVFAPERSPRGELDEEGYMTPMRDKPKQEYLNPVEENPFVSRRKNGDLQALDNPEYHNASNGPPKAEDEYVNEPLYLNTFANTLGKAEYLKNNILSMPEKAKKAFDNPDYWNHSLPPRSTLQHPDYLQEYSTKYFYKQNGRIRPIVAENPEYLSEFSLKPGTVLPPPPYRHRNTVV
T2 sequence (O43293 whole entry, species assumed): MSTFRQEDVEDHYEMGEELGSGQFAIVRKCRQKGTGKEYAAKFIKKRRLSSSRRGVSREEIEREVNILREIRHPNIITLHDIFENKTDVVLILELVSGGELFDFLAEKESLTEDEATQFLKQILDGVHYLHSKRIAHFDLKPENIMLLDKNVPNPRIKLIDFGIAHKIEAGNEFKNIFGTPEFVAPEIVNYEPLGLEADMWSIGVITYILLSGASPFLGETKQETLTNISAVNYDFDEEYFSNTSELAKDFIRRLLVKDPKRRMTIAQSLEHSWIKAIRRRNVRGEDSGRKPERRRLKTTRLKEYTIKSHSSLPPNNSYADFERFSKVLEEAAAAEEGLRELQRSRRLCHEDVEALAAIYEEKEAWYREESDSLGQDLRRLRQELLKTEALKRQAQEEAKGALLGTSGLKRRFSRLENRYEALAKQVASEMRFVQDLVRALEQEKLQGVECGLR
T1 sequence (P48730 whole entry): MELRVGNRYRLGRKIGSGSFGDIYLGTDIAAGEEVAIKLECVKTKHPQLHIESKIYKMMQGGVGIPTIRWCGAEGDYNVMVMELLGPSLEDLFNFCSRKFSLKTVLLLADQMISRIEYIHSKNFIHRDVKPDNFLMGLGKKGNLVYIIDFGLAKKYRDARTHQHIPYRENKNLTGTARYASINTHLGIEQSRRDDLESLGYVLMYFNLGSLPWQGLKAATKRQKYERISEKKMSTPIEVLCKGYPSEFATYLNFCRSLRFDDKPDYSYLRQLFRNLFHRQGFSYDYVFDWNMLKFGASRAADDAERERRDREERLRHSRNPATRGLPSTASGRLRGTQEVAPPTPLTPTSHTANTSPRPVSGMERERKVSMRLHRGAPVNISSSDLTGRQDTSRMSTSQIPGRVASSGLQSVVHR

`C=CC(=O)N1CCCC(c2c(F)cc(C(N)=O)c3[nH]c4c(c23)CCCCC4)C1` (single isomer, unassigned) [Compound 5-6] showed an inhibition at 1 µM (CSNK1D/CK1D) of 4.2%, an inhibition at 1 µM (DAPK3) of 25.9% and an inhibition at 1 µM (EPHA3) of 0.7%. For the same compound, the inhibition at 1 µM (EPHA8) was 10%, the inhibition at 1 µM (ERBB4/HER4) was -19.7% and the inhibition at 1 µM (NEK2) was -26.5%.

`C=CC(=O)N1CCC[C@@H](c2c(F)cc(C(N)=O)c3[nH]c4c(c23)CC2(CC4)CC2)C1` [Compound 6-2, (S)-5-(1-acryloylpiperidin-3-yl)-6-fluoro-1,2,4,9-tetrahydrospiro[carbazole-3,1′-cyclopropane]-8-carboxamide] was tested, and the inhibition at 1 µM (CSNK1D/CK1D) was 11.7%, the inhibition at 1 µM (DAPK3) was 10% and the inhibition at 1 µM (EPHA3) was 10.1%. It also gave an inhibition at 1 µM (EPHA8) of -15.3%, an inhibition at 1 µM (ERBB4/HER4) of 2.4% and an inhibition at 1 µM (NEK2) of -1.4%.

For `C=CC(=O)N1CCC[C@@H](c2c(F)cc(C(N)=O)c3[nH]c4c(c23)CCC4)C1` [Compound 10-2, (S)-8-(1-acryloylpiperidin-3-yl)-7-fluoro-1,2,3,4-tetrahydrocyclo-penta[b]indole-5-carboxamide], the inhibition at 1 µM (CSNK1D/CK1D) was 16.5%, the inhibition at 1 µM (DAPK3) was -4.9% and the inhibition at 1 µM (EPHA3) was 1.6%. It also gave an inhibition at 1 µM (EPHA8) of -19.1%, an inhibition at 1 µM (ERBB4/HER4) of 17.1% and an inhibition at 1 µM (NEK2) of 10.6%.
